Patent publication US20190211020A1 (Agency for Science, Technology and Research, priority 2012, published 2019)
“Also recorded” adds a separate entry of the source. Where two headings read alike, the source gives them in different places.

Key:
[1] = tested on: beta-catenin transcriptional activity; conditions: background; cited from earlier work
[2] = tested on: phospho-eIF4E S209 in BC-CML primary cells; assay: Immunofluorescence of phospho-eIF4E in BC-CML primary cells; format: cell-based, human; conditions: 48 h
Description: (§1) Cord Blood (CB) samples were purchased from the Singapore Cord Blood bank. CML samples were the Singapore General Hospital after signed informed consent under local IRB-approved procedures. MNCs were obtained using Ficoll separation, and CD34^+ cells selected by immunomagnetic beads (Miltenyi Biotech, Germany).
(§2) Cells (1×10^5) were cytospun onto glass slides, fixed with 4% paraformaldehye, and stained with mouse monoclonal antibodies against activated β-catenin (clone 8E7, Millipore, UK), or rabbit monoclonal antibodies against phospho-eIF4E S209 (EP2151Y, Abcam, UK). Slides were then stained with either PE-conjugated anti-mouse or FITC-conjugated anti-rabbit antibodies. Images were obtained with the use of a fluorescence microscope (Olympus IX71S1F3) at 40× magnification.

CD34+ BC cells = assay: Serial replating assay, CD34+ BC-CML cells; format: cell-based, human; conditions: for serial replating efficiency of CD34+ BC cells compared to DMSO: increasing dose, 48 hr treatment, three replatings (>8 weeks)
Description: as §1
CD34-enriched CB and BC cells were thawed and allowed to recover overnight in serum-free StemPro media (Invitrogen, Carlsbad, Calif.), supplemented with human growth factors and 1× nutrient supplement (Invitrogen). Cells were then subjected to drug treatment for 48 hr, harvested, washed, and seeded in methycellulose (H4434, […] Technologies, Canada). Colonies were enumerated after 2 weeks, individually picked, and replated in fresh methylcellulose in a 96-well format, and counted at 2 weeks. Three rounds of serial replating (representing >8 weeks in culture) were performed.

[3] = tested on: eIF4E phosphorylation in K562 cells; assay: Western blot of eIF4E phosphorylation in K562 cells; format: cell-based; conditions: various concentrations, 24 h
Experimental: (§3) K562 cell line was obtained from the ATCC, and grown in RPMI supplemented with 10% FCS, L-glutamine, and penicillin/streptomycin.
(§4) Exponentially growing cells were plated at 2×10^5 cells/ml, and whole cell lysate processed for western blot analysis using antibodies recognizing eIF4E, phospho-eIF4E (Cell signaling Technology),

[4] = tested on: eIF4E Ser209 phosphorylation in Hela cells; assay: MNK cell-based assay (AlphaScreen SureFire, eIF4E Ser209 phosphorylation); conditions: Homo sapiens, read-out: IC50 Hela
Summary of the method: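 Hela cells (30,000/well) exposed to test compound in serum-free medium for 2 h at 37 °C, then lysed. Phospho-Ser209 eIF4E quantified by AlphaScreen SureFire; IC50 obtained by non-linear regression of signal versus log compound concentration.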

MNK1 = molecular target: T1, MNK1 (Homo sapiens, UniProt Q9BUB5); assay: In vitro MNK kinase assay (Caliper LabChip mobility shift), MNK1; format: biochemical; conditions: enzymatic; 1.2 mM ATP
T1 construct: recombinant kinase domains expressed in E. coli; fused on or other part: N-terminal GST tag, removed with PreScission protease before the test
Experimental: (§5) MNK1 and MNK2 inhibitor activity was determined using recombinant kinase domains expressed in E. coli. MNK1 and MNK2 were expressed as GST fusion proteins and the GST tag was removed using PreScission protease. After concentration to 10-15 mg/ml the proteins were flash frozen in liquid nitrogen and stored at −80° C.
(§6) This reaction mixture was then used immediately for the activation of the MNKs. The activation of the MNK1 was performed by incubating 5.0 μM of MNK1 with 0.3 μM of activated ERK2 and 500 μM ATP at 30° C. for 6 hours. The activation of MNK2 was performed by incubating 50 μM of MNK2 with 3.0 μM of activated ERK2 and 500 μM ATP at 30° C. for 2 hours. The activated MNKs were stored at −20° C. until required for assay.
(§7) Kinase assays were performed on the Caliper Life Sciences (Mountain View, Calif.) Microfluidics LabChip® Platform. Enzyme activity is analyzed by ‘sipping’ reactions from a microtitre plate into LabChip. The data signature is generated by the shift in mobility of non-phosphorylated peptide substrates and phosphorylated products by electrophoresis in the chip and detected by LED induced fluorescence. […] The data is analyzed by calculating the relative heights of the substrate and product peaks and the product/(product+substrate) peak ratio is reported.
(§8) The following buffers were used to assay kinase activity:
(§9) Reconstitution buffer: 10 mM HEPES/NaOH pH7.5, 0.003% Brij® L23, 0.004% TWEEN® 20.
(§10) Separation buffer: 100 mM HEPES/NaOH pH7.3, 0.02% Brij® L23, 5% DMSO, 0.1% CR3, 1 mM EDTA pH8.0.
(§11) The reaction was stopped by the addition of […] termination buffer.
(§12) Inhibition constants (IC50) were determined by plotting kinase activity versus log compound concentration and fitting with a non-linear regression algorithm using GraphPad Prism (GraphPad Software Inc.).

MNK2 = molecular target: T2, MNK2 (Homo sapiens, UniProt Q9HBH9); assay: In vitro MNK kinase assay (Caliper LabChip mobility shift), MNK2; format: biochemical; conditions: enzymatic; 250 μM ATP
T2 construct: GST (cleaved yes); made in house; host or cells: E. coli
Experimental: as §5, §6, §7, §8, §9, §10, §11, §12

[5] = tested on: nuclear active beta-catenin in BC-CML primary cells; assay: Immunofluorescence of nuclear active beta-catenin in BC-CML primary cells; format: cell-based, human
Description: as §1, §2

[6] = tested on: D1.1 (acute T cell leukemia); assay: Cell cytotoxicity assay (CellTiter-Glo), D1.1; format: cell-based; conditions: T-cell, cell viability
Experimental: (§13) Cancer cell lines, MV-4-11 (leukemia), P116.c139 (acute T cell leukemia) and D1.1 (acute T cell leukemia), were purchased from ATCC and cultured according to supplier's recommendations. K562 cells (myelogenous leukemia) over-expressing eIF4E, were also used for the cytotoxicity assay. For cells treated for 48 hours, 5000 cells were seeded in 70 μl of growth medium in black, flat-bottom 96-well plate. For cells treated for six days, 1000 cells were seeded in 70 μl of growth medium in black, flat-bottom 96-well plate. […] 50 μl of the diluted compounds was added to the cells and incubated at 37° C. in 5% CO2. After 48 hours or six days treatment, cell viability was determined by CellTiter-Glo Luminescent Cell Viability Assay (Promega, Madison, Wis.). 120 μl of the reagent was added to the cells and luminescence was measured using Tecan Safire Reader. Data was analysed with Graphpad Prism software and the figures represented indicate the half maximal inhibitory concentration (IC50). Error bars denote standard deviation (SD).

BCR-ABL = molecular target: T3, BCR-ABL (Homo sapiens, UniProt P00519); assay: Western blot of CrK1 phosphorylation (BCR-ABL activity) in K562 cells; format: cell-based
T3 construct: host or cells: K562; the other entry of the earlier key: BCR (P11274, Breakpoint cluster region protein)
Experimental: as §3, §4

[7] = tested on: P116.c139 (acute T cell leukemia); assay: Cell cytotoxicity assay (CellTiter-Glo), P116.c139; format: cell-based; conditions: T-cell, cell viability
Experimental: as §13

MV-4-11 (leukemia) = assay: Cell cytotoxicity assay (CellTiter-Glo), MV-4-11; format: cell-based; conditions: Homo sapiens, cell viability
Experimental: as §13

[8] = tested on: K562 cells (myelogenous leukemia) over-expressing eIF4E; assay: Cell cytotoxicity assay (CellTiter-Glo), K562; format: cell-based; conditions: for IC50: Homo sapiens, cell viability
Experimental: as §13

[9] = tested on: MV-4-11, P116.c139 and D1.1 cell lines; assay: Cell cytotoxicity assay, the three test cell lines taken together; format: cell-based
Experimental: as §13

[10] = tested on: active nuclear beta-catenin in BC GMPs; conditions: background; cited from earlier work
[11] = tested on: eIF4E phosphorylation in BC GMPs; conditions: background; cited from earlier work
[12] = tested on: patient-derived BC cells in NSG mice; conditions: 40 mg/kg/d CGP or 5 mg/kg/d dasatinib for three weeks; read at 16 weeks; cited from earlier work
[13] = tested on: CD34+BC cells (including those carrying T315I mutation); conditions: background; cited from earlier work
[14] = eIF4E Ser209 phosphorylation, Hela cells, 2 hours

T2 sequence (Q9HBH9 84-388 limits assumed): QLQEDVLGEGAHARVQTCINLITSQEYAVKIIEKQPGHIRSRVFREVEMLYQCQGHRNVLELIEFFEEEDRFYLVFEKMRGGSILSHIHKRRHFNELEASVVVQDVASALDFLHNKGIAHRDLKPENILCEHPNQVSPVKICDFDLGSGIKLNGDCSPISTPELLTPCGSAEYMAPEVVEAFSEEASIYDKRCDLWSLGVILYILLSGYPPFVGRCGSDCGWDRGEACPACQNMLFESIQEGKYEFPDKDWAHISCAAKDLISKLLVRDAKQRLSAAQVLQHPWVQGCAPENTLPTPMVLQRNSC
T1 sequence (Q9BUB5 1-424 isoform Q9BUB5-2): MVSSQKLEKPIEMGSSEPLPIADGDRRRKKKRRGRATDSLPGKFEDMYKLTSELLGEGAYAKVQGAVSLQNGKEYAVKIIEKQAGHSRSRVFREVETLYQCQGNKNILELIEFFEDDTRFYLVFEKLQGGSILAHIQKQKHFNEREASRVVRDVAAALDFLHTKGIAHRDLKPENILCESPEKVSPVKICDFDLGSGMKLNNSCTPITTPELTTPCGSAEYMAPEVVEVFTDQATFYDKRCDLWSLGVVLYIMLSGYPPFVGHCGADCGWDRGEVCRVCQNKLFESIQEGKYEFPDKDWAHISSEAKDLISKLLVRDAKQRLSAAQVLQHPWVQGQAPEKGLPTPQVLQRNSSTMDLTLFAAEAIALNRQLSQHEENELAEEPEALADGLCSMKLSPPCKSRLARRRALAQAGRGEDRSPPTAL
T3 sequence (P00519 with tags, fused parts or gaps): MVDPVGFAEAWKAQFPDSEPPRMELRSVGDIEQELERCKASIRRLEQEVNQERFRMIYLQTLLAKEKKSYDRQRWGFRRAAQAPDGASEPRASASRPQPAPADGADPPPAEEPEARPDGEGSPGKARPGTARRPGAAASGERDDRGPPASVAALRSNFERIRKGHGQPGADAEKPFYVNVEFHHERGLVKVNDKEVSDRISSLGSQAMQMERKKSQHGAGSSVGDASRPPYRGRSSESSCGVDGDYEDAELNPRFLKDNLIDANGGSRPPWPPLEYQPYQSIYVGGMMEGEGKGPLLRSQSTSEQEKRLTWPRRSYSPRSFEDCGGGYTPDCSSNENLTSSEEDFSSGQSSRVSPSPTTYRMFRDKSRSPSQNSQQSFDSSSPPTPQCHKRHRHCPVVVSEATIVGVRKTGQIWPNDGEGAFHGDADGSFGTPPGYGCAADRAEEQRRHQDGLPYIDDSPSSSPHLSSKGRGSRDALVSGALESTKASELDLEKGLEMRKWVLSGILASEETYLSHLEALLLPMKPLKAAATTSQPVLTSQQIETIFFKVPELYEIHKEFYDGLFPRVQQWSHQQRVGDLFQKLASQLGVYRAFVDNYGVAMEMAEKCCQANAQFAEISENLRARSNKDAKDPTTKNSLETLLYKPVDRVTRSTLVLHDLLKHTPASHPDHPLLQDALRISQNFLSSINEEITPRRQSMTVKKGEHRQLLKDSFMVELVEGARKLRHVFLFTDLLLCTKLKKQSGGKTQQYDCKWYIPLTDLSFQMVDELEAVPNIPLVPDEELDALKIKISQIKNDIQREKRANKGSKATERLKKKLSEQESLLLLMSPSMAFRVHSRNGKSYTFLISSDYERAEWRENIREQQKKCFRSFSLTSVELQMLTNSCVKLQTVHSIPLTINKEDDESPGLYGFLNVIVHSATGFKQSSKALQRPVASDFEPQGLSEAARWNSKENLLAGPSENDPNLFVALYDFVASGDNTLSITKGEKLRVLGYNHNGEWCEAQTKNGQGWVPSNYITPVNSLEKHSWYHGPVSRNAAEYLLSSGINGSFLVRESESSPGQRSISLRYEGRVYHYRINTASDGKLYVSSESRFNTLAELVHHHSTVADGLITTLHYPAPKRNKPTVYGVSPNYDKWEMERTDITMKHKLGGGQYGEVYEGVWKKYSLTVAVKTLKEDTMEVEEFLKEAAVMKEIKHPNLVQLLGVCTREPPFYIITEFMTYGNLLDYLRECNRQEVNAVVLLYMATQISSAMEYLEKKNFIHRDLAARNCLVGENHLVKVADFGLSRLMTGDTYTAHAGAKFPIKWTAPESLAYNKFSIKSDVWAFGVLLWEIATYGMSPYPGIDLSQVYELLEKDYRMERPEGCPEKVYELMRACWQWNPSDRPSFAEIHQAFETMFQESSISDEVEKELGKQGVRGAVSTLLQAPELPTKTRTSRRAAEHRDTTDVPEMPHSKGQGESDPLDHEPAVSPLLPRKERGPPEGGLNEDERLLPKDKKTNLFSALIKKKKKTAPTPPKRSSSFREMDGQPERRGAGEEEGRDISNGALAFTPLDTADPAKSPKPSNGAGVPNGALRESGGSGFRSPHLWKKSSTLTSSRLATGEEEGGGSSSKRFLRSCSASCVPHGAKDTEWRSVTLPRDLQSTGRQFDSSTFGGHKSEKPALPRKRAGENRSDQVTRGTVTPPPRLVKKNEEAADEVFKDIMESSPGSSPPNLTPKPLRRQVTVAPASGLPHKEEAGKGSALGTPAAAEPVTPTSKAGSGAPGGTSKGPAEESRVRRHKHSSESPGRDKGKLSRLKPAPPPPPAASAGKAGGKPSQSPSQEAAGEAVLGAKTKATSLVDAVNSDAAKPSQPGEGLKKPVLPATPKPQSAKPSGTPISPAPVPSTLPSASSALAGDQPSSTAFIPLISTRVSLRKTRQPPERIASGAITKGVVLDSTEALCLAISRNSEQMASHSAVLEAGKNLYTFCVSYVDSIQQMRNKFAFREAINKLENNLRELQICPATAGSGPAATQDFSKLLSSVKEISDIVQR

In the case of CC[n+]1c(/C=C/N(C)c2ccccc2)n(-c2ccccc2)c2ccc(-c3nc4ccccc4s3)cc21.[I-] [AKT inhibitor IV], the “eIF4E-mediated increases in beta-catenin transcriptional activity” value [1] is listed as “prevented eIF4E-mediated increases in beta-catenin transcriptional activity”.

With CN1CCN(C(=O)c2ccc(-c3cn4c(-c5ccc(O)cc5)cnc4cn3)cc2)CC1 [Example 1, (4-(3-(4-hydroxyphenyl)imidazo[1,2-a]pyrazin-6-l)phenyl)(4-methylpiperazin-1-yl)methanone] the “eIF4E phosphorylation in BC-CML primary cells, immunofluorescence” value (“eIF4E phosphorylation … immunofluorescence” for short) [2] was “prevent eIF4E phosphorylation”, the “serial replating efficiency of CD34+ BC cells compared to DMSO” value (CD34+ BC cells) was “retards the serial replating efficiency” and the “eIF4E phosphorylation in K562 (BC-CML cell line), Western blot” value (“eIF4E phosphorylation in K562” for short) [3] was “prevent eIF4E phosphorylation”. For the same compound, the IC50 [4, 14] was under 1000 nM.

In the case of O=C(c1ccc(-c2cn3c(-c4ccc(O)cc4)cnc3cn2)cc1)N1CCOCC1 [Example 2, (4-(3-(4-hydroxyphenyl)imidazo[1,2-a]pyrazin-6-yl)phenyl)(morpholino)methanone], the “eIF4E phosphorylation … immunofluorescence” value [2] is reported as “prevent eIF4E phosphorylation”, the “ability of BC cells to serial replate” value (CD34+ BC cells; at 10.0 μM and 20.0 μM) is reported as “potently impaired the ability of BC cells to serial replate” and the “serial replating efficiency of CD34+ BC cells compared to DMSO” value (CD34+ BC cells) is reported as “retards serial replating efficiency”. The “eIF4E phosphorylation in K562” value [3] was “prevent eIF4E phosphorylation” and the IC50 [4, 14] was under 1000 nM.

With CN1CCN(C(=O)c2ccc(-c3cn4c(-c5ccc(C#N)cc5)cnc4cn3)cc2)CC1 [Example 6, 4-(6-(4-(4-methylpiperazine-1-carbonyl)phenyl)imidazo[1,2-a]pyrazin-3-yl)benzonitrile] the “eIF4E phosphorylation … immunofluorescence” value [2] was “prevent eIF4E phosphorylation”, the “eIF4E phosphorylation in K562” value [3] was “prevent eIF4E phosphorylation” and the IC50 ([4]; HeLa, 2 h) was under 1000 nM.

Cc1cc(-c2cn3c(-c4ccc(C#N)cc4)cnc3cn2)ccc1C(=O)N1CCC(N)CC1 [Example 27, 4-(6-(4-(4-aminopiperidine-1-carbonyl)-3-methylphenyl)imidazo [1,2-a]pyrazin-3-yl)benzonitrile] showed an IC50 (MNK1) of under 100 nM, an IC50 (MNK2) of under 100 nM and an IC50 [4, 14] of under 1000 nM.

CC(=O)NC1CCN(C(=O)c2ccc(-c3cn4c(-c5ccc(Cl)cc5)cnc4cn3)cc2)CC1 [Example 49] showed an IC50 (MNK1) of under 1000 nM, an IC50 (MNK2) of under 1000 nM and an IC50 [4, 14] of under 1000 nM.

Compound CC(=O)Nc1cc(-c2ccc3ncc(-c4ccc(C#N)cc4)n3n2)ccc1C(=O)N1CCOCC1 [Example 80, N-(5-(3-(4-cyanophenyl)imidazo[1,2-b]pyridazin-6-yl)-2-(morpholine-4-carbonyl)phenyl)acetamide] has an IC50 (MNK1) of under 100 nM, an IC50 (MNK2) of under 100 nM and an IC50 [4, 14] of under 1000 nM.

In the case of N#Cc1ccc(-c2cnc3ccc(-c4ccc(C(=O)N5CCN(c6ccncc6)CC5)cc4)cn23)cc1 [Example 125, 4-(6-(4-(4-(pyridin-4-yl)piperazine-1-carbonyl)phenyl)imidazo[1,2-a]pyridin-3-yl)benzonitrile], the IC50 (MNK1) is reported as under 100 nM, the IC50 (MNK2) is reported as under 100 nM and the IC50 [4, 14] is reported as under 1000 nM.

In the case of CN1CCN(C(=O)c2ccc(-c3ccn4ncc(-c5ccc(C#N)cc5)c4n3)cc2)CC1 [Example 176, 4-(5-(4-(4-methylpiperazine-1-carbonyl)phenyl)pyrazolo[1,5-a]pyrimidin-3-yl)benzonitrile], the “nuclear active beta-catenin in BC-CML primary cells, immunofluorescence” value [5] is reported as “decrease in nuclear beta-catenin accumulation”, the IC50 ([6]; 144 h, 6 days, read-out: IC50 after 6 days of treatment, D1.1) is reported as 800 nM and the IC50 ([6]; 48 hours, read-out: IC50 after 48 hours of treatment, D1.1) is reported as 1000 nM. The “BCR-ABL activity (phosphorylation of CrK1) in K562 cells” value (BCR-ABL) was “decrease in BCR-ABL activity”, the IC50 ([7]; 144 h, 6 days, read-out: IC50 after 6 days of treatment, P116.c139) was 100 nM and the IC50 ([7]; 48 hours, read-out: IC50 after 48 hours of treatment, P116.c139) was 400 nM. For the same compound, the “eIF4E phosphorylation in K562” value [3] was “prevent eIF4E phosphorylation; also recorded: decrease in eIF4E phosphorylation”, the IC50 (MV-4-11 (leukemia); MV4-11, 144 h, 6 days, read-out: IC50 after 6 days of treatment, MV-4-11) was 400 nM and the IC50 (MV-4-11 (leukemia); MV4-11, 48 hours, read-out: IC50 after 48 hours of treatment, MV-4-11) was 1000 nM. The IC50 ([8]; K562, 144 h, 6 days, read-out: IC50 after 6 days of treatment, K562) was 3400 nM, the IC50 ([8]; K562, 48 hours, read-out: IC50 after 48 hours of treatment, K562) was 14200 nM and the “change of IC50 when treatment duration was extended from 48 hours to 6 days, K562” value ([8]; K562 cells over-expressing eIF4E) was “reduced by more than half”. The IC50 [4, 14] was under 1000 nM, the “relative cytotoxicity amongst the four compounds” value [9] was “most cytotoxic” and the IC50 ([9]; Homo sapiens, MV4-11, regardless of the treatment duration (48 hours or 6 days)) was at most 1000 nM.

For Cc1nc(Nc2ncc(C(=O)Nc3c(C)cccc3Cl)s2)cc(N2CCN(CCO)CC2)n1 [dasatinib], the “accumulation of active nuclear beta-catenin in BC GMPs” value [10] is given as “not”, the “eIF4E phosphorylation in BC GMPs” value [11] is given as “not” and the “serial transplantation of BC cells in NSG mice after in vivo treatment” value [12] is given as “not”. For the same compound, the “ability of CD34+ BC cells to serially replate for more than 8 weeks in methylcellulose” value [13] was “only partially impaired”.

For Cc1ccc(NC(=O)c2ccc(CN3CCN(C)CC3)cc2)cc1Nc1nccc(-c2cccnc2)n1 [imatinib], the “accumulation of active nuclear beta-catenin in BC GMPs” value [10] is listed as “not”, the “eIF4E phosphorylation in BC GMPs” value [11] is listed as “not” and the “ability of CD34+ BC cells to serially replate for more than 8 weeks in methylcellulose” value [13] is listed as “only partially impaired”.
